Tests used:
[1] = Salt formation of Compound 2 with seven acids in seven organic solvents: physical form obtained; assay type: physicochemical; settings: for physical form of Compound 2 salt: 10 mL, acid 1.73 mmol; for physical form of the obtained salt: in certain organic solvents (summary of Table 1)
Protocol: In one example, Compound 2 (1.0 g, 1.73 mmol) in MTBE (10 mL) solution and oxalic acid (0.16 g, 1.73 mmol) was added dropwise. The reaction mixture was stirred for about 6 hours and filtered to obtain a wet cake of methyl 4-(2-{(2S)-2-[2-(propan-2-yl)phenyl]pyrrolidin-1-yl}-7-azaspiro[3.5]nonan-7-yl)-2-[(1H-pyrrolo[2,3-b]pyridin-5-yl)oxy]benzoate oxalate salt (Compound 3).
The other acids were used as the following amounts, D-(−)-tartaric (0.26 g, 1.73 mmol), p-toluenesulfonic acid (0.3 g, 1.73 mmol), D-DTTA (0.67 g, 1.73 mmol), Citric acid (0.33 g, 1.73 mmol), Malic acid (0.23 g, 1.73 mmol), Maleic acid (0.20 g, 1.73 mmol); and the other organic solvents were used with 10 mL volume.

[2] = Properties of the solid oxalate salt of Compound 2 as stated in text

## Maleic acid
[1]; solvent 2-MeTHF
  physical form of Compound 2 salt: Clean solution
[1]; solvent Acetone
  physical form of Compound 2 salt: Clean solution
[1]; solvent DCM
  physical form of Compound 2 salt: Clean solution
[1]; solvent EA
  physical form of Compound 2 salt: Clean solution
[1]; solvent IPAc
  physical form of Compound 2 salt: oil
[1]; solvent MTBE
  physical form of Compound 2 salt: moisture
[1]; solvent MeOH
  physical form of Compound 2 salt: Clean solution

## Cc1ccc(C(=O)O[C@H](C(=O)O)[C@H](OC(=O)c2ccc(C)cc2)C(=O)O)cc1 [D-DTTA]
[1]
  physical form of the obtained salt: solid form
[1]; solvent 2-MeTHF
  physical form of Compound 2 salt: Clean solution
[1]; solvent Acetone
  physical form of Compound 2 salt: Clean solution
[1]; solvent DCM
  physical form of Compound 2 salt: Clean solution
[1]; solvent EA
  physical form of Compound 2 salt: Clean solution
[1]; solvent IPAc
  physical form of Compound 2 salt: oil
[1]; solvent MTBE
  physical form of Compound 2 salt: Fine solid
[1]; solvent MeOH
  physical form of Compound 2 salt: Clean solution

## Citric acid
[1]; solvent 2-MeTHF
  physical form of Compound 2 salt: oil
[1]; solvent Acetone
  physical form of Compound 2 salt: Clean
[1]; solvent DCM
  physical form of Compound 2 salt: Clean
[1]; solvent EA
  physical form of Compound 2 salt: oil
[1]; solvent IPAc
  physical form of Compound 2 salt: moisture
[1]; solvent MTBE
  physical form of Compound 2 salt: moisture
[1]; solvent MeOH
  physical form of Compound 2 salt: Clean

## Malic acid
[1]; solvent 2-MeTHF
  physical form of Compound 2 salt: Clean solution
[1]; solvent Acetone
  physical form of Compound 2 salt: Clean solution
[1]; solvent DCM
  physical form of Compound 2 salt: Clean solution
[1]; solvent EA
  physical form of Compound 2 salt: oil
[1]; solvent IPAc
  physical form of Compound 2 salt: oil
[1]; solvent MTBE
  physical form of Compound 2 salt: moisture
[1]; solvent MeOH
  physical form of Compound 2 salt: Clean solution

## COC(=O)c1ccc(N2CCC3(CC2)CC(N2CCC[C@H]2c2ccccc2C(C)C)C3)cc1Oc1cnc2[nH]ccc2c1.O=C(O)C(=O)O [Compound 3, methyl 4-(2-{(2S)-2-[2-(propan-2-yl)phenyl]pyrrolidin-1-yl}-7-azaspiro[3.5]nonan-7-yl)-2-[(1H-pyrrolo[2,3-b]pyridin-5-yl)oxy]benzoate oxalate salt]
[1]
  physical form of the obtained salt: solid form
[1]; solvent 2-MeTHF
  physical form of Compound 2 salt: oil
[1]; solvent Acetone
  physical form of Compound 2 salt: Clean solution
[1]; solvent DCM
  physical form of Compound 2 salt: Clean solution
[1]; solvent EA
  physical form of Compound 2 salt: oil
[1]; solvent IPAc
  physical form of Compound 2 salt: moisture
[1]; solvent MTBE
  physical form of Compound 2 salt: Fine solid
[1]; solvent MeOH
  physical form of Compound 2 salt: Clean solution
[2]; solid (wet cake) obtained from MTBE
  hydroscopic property: low
[2]; solid salt, no test described
  stability: very good

## Cc1ccc(S(=O)(=O)O)cc1 [p-toluenesulfonic acid]
[1]; solvent 2-MeTHF
  physical form of Compound 2 salt: Clean solution
[1]; solvent Acetone
  physical form of Compound 2 salt: Clean solution
[1]; solvent DCM
  physical form of Compound 2 salt: Clean solution
[1]; solvent EA
  physical form of Compound 2 salt: Clean solution
[1]; solvent IPAc
  physical form of Compound 2 salt: Clean solution
[1]; solvent MTBE
  physical form of Compound 2 salt: moisture absorption
[1]; solvent MeOH
  physical form of Compound 2 salt: Clean solution
